Data published in PMC7162838, “Production of multiple bacteriocins, including the novel bacteriocin gassericin M, by Lactobacillus gasseri LM19, a strain isolated from human milk” (Applied Microbiology and Biotechnology, 2020).
Like-named read-outs stand apart in the source and are kept apart here.

Test system: L. bulgaricus DPC6901
Assay: Well-diffusion assay of naturally produced and synthetic peptides
Type: cell-based, Lactobacillus delbrueckii subsp. bulgaricus
Conditions: for antimicrobial activity of synthetic peptides: synthetic peptides resuspended in milli Q water at 1 mg/ml
[1] = fractions from HPLC fractionation I and II of L. gasseri LM19 cell extracts and supernatant, well-diffusion, Fig. 4a

Row | Sequence | antimicrobial activity of HPLC fractions containing the peptide mass [1] | antimicrobial activity of synthetic peptides (well-diffusion, Fig. 4a) | antimicrobial activity of HPLC fractions containing the peptide mass
1 | MKNFNTLSFETLANIVGGRNNWAANIGGVGGATVAGWALGNAVCGPACGFVGAHYVPIAWAGVTAATGGFGKIRK [GamA, class IIb bacteriocin peptide of L. gasseri LM19 cluster 3, purified from culture and synthesised] | largest zones of inhibition | highest activity | –
2 | MIEKVSKNELSRIYGGNNVNWGSVAGSCGKGAVMGIYFGNPILGCANGAATSLVLQTASGIYKNYQKKR [Bact_2, bacteriocin peptide of L. gasseri LM19 cluster 1, identical to gassericin S peptide GasX] | – | highest activity | largest zones of inhibition
3 | MKTLNEQELTQIVGGKGNKGINWANVRCASAVTIGALGGGLAGPGGMVGGFLLGSGACF [GamY, peptide of the novel two-component bacteriocin gassericin M] | – | did not show activity | clear activity
4 | MALKTLEKHELRNVMGGNKWGNAVIGAATGATRGVSWCRGFGPWGMTACGLGGAAIGGYLGYKSN [GamX, class IIb bacteriocin peptide of L. gasseri LM19 cluster 3, purified from culture and synthesised] | low activity | – | –
5 | MKVLNECQLQTVVGGKNWSVAKCGGTIGTNIAIGAWRGARAGSFFGQPVSVGAGALIGASAGAIGGSVQCVGWLAGGGR [Bact_1, bacteriocin peptide of L. gasseri LM19 cluster 1, identical to gassericin S peptide GasA] | – | lower than that from fractions containing the Bact_1 mass | –
6 | MRKINKEELVEITGGFNAAKCAVGTAGGAFSIARGSAAFGVPGMVIGGILGGAAGALASCK [GamM, peptide of the novel two-component bacteriocin gassericin M] | – | notable | low activity
